Like-named read-outs stand apart in the source and are kept apart here.
Tests used:
Type in all cases: cell-based
Prostate Cancer panel = assay: NCI60 five-dose screen, panel mean; conditions: Homo sapiens
HCT-116 = assay: NCI60 one-dose screen; conditions: Homo sapiens, HCT-116, read-out: Growth percent
CCRF-CEM = assay: NCI60 five-dose screen; conditions: Homo sapiens
SNB-19 = assay: NCI60 five-dose screen; conditions: Homo sapiens, SNB-19
HS 578T = assay: NCI60 five-dose screen; conditions: Homo sapiens, Hs-578T
HL-60(TB) = assay: NCI60 one-dose screen; conditions: Homo sapiens, HL-60, read-out: Growth percent
CNS Cancer panel = assay: NCI60 five-dose screen, panel mean; conditions: Homo sapiens
MDA-MB-231/ATCC = assay: NCI60 one-dose screen; conditions: Homo sapiens, MDA-MB-231, read-out: Growth percent
SF-295 = assay: NCI60 one-dose screen; conditions: Homo sapiens, SF-295, read-out: Growth percent
OVCAR-5 = assay: NCI60 five-dose screen; conditions: Homo sapiens, OVCAR-5
SN12C = assay: NCI60 five-dose screen; conditions: Homo sapiens
NCI-H322M = assay: NCI60 five-dose screen; conditions: Homo sapiens
HCC-2998 = assay: NCI60 one-dose screen; conditions: Homo sapiens, HCC 2998, read-out: Growth percent
ACHN = assay: NCI60 five-dose screen; conditions: Homo sapiens
[1] = tested on: 60 human tumor cell lines (NCI60); assay: NCI60 five-dose screen, overall mean
BT-549 = assay: NCI60 one-dose screen; conditions: Homo sapiens, BT-549, read-out: Growth percent
T-47D = assay: NCI60 five-dose screen; conditions: Homo sapiens, T47D
OVCAR-8 = assay: NCI60 five-dose screen; conditions: Homo sapiens, OVCAR-8
DU-145 = assay: NCI60 five-dose screen; conditions: Homo sapiens, DU-145
SW-620 [2] = assay: NCI60 five-dose screen; conditions: Homo sapiens, SW-620
COLO 205 = assay: NCI60 one-dose screen; conditions: Homo sapiens, COLO 205, read-out: Growth percent
SF-268 = assay: NCI60 five-dose screen; conditions: Homo sapiens, SF-268
MDA-MB-468 = assay: NCI60 one-dose screen; conditions: Homo sapiens, MDA-MB-468, read-out: Growth percent
M14 = assay: NCI60 five-dose screen; conditions: Homo sapiens, M14
[3] = tested on: 60 human tumor cell lines (NCI60); assay: NCI60 one-dose screen, overall mean; conditions: for activity at 10 µM: Homo sapiens, 60 cell, read-out: Mean growth percent
SR = assay: NCI60 five-dose screen; conditions: Homo sapiens
SW-620 [4] = assay: NCI60 one-dose screen; conditions: Homo sapiens, SW-620, read-out: Growth percent
NCI/ADR-RES = assay: NCI60 one-dose screen; conditions: Homo sapiens, read-out: Growth percent
MDA-MB-435 = assay: NCI60 one-dose screen; conditions: Homo sapiens, MDA-MB-435, read-out: Growth percent
HOP-62 = assay: NCI60 one-dose screen; conditions: Homo sapiens, HOP-62, read-out: Growth percent
NCI-H226 = assay: NCI60 five-dose screen; conditions: Homo sapiens, NCI-H226
RXF 393 = assay: NCI60 one-dose screen; conditions: Homo sapiens, RXF 393, read-out: Growth percent
NCI-H23 = assay: NCI60 five-dose screen; conditions: Homo sapiens, NCI-H23
[5] = 60 cell, read-out: Mean GI50, mean over all 60 cell lines

Structure (SMILES)	activity at 10 µM (HCT-116)	GI50 (CCRF-CEM)	GI50 (SNB-19)	GI50 (HS 578T)	activity at 10 µM (HL-60(TB))	activity at 10 µM (MDA-MB-231/ATCC)	activity at 10 µM (SF-295)	GI50 (OVCAR-5)	GI50 (SN12C)	GI50 (NCI-H322M)	activity at 10 µM (HCC-2998)	GI50 (ACHN)	GI50 [1, 5]	activity at 10 µM (BT-549)	GI50 (T-47D)	GI50 (OVCAR-8)	GI50 (DU-145)	GI50 (SW-620 [2])	activity at 10 µM (COLO 205)	GI50 (SF-268)	other results
CC[C@]12C=CCN3CC[C@@]4(c5ccc(OC)cc5N(C)[C@H]4[C@@](O)(C(=O)OC)[C@@H]1OC(=O)CCC[P+](C1CCCCC1)(C1CCCCC1)C1CCCCC1)[C@@H]32 [9d]	0.16%	1690 nM	2220 nM	2450 nM	-37.1%	-90.8%	-13.6%	3190 nM	2890 nM	5.79 µM	-92.6%	15.2 µM	3800 nM	-97.4%	1320 nM	2970 nM	3750 nM	2950 nM	-63.6%	3230 nM	GI50 (Prostate Cancer panel; read-out: Mean GI50): 2730 nM; GI50 (CNS Cancer panel; read-out: Mean GI50): 2710 nM; activity at 10 µM (MDA-MB-468): -79.6%; GI50 (M14): 1920 nM; activity at 10 µM [3]: -32.7%; GI50 (SR): 1350 nM; activity at 10 µM (SW-620 [4]): 3.91%; activity at 10 µM (NCI/ADR-RES): 100%; activity at 10 µM (MDA-MB-435): -80.1%; activity at 10 µM (HOP-62): 4.26%; GI50 (NCI-H226): 4060 nM; activity at 10 µM (RXF 393): -70.3%; GI50 (NCI-H23): 2310 nM
CC[C@]12C=CCN3CC[C@@]4(c5ccc(OC)cc5N(C)[C@H]4[C@@](O)(C(=O)OC)[C@@H]1OC(=O)CCCC[P+](c1ccc(C)cc1)(c1ccc(C)cc1)c1ccc(C)cc1)[C@@H]32 [10a]	-93.5%	768 nM	960 nM	1200 nM	-42.2%	-97.2%	-91.8%	1440 nM	619 nM	2.67 µM	-85.8%	2.54 µM	< 3000 nM	-97%	370 nM	1130 nM	1150 nM	761 nM	-64.1%	1170 nM	GI50 (Prostate Cancer panel; read-out: GI50 Mean): 800 nM; GI50 (CNS Cancer panel; read-out: GI50 Mean): 1090 nM; GI50 ([1]; read-out: GI50 Mean, mean over all 60 human cancer cell lines): 1230 nM; activity at 10 µM (MDA-MB-468): -92.5%; GI50 (M14): 1110 nM; activity at 10 µM [3]: -78.7%; average reduction / average cell death ([3]; one-dose, 10 µM, average over cell lines): more than 70%; GI50 (SR): 360 nM; activity at 10 µM (SW-620 [4]): -88.2%; activity at 10 µM (NCI/ADR-RES): 71.8%; activity at 10 µM (MDA-MB-435): -86.8%; activity at 10 µM (HOP-62): -84%; GI50 (NCI-H226): 1430 nM; activity at 10 µM (RXF 393): -87.6%; GI50 (NCI-H23): 855 nM
